Laboratory results reported in ChEMBL document CHEMBL1201862, “PubChem BioAssay data set” (2004).
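Cells were grown in 96-well plates and exposed to each compound for 48 hours at five concentrations; endpoints were interpolated linearly between bracketing concentrations, or set to the highest concentration if not reached. The concentration for 50% growth inhibition is given as GI50.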 Activity calls are given as the source filed them. No stated cut-off is given here; in the data, active = GI50 up to about 1.1 µM and inactive = higher.

Legend:
Experiment in all cases: NCI anticancer screen, dose series, 48 h
PC-3 = tested on: PC-3
MOLT-4 = tested on: MOLT-4
HL-60 = tested on: HL-60
NCI-H23 = tested on: NCI-H23
SF-295 = tested on: SF-295
SNB-19 = tested on: SNB-19
HOP-92 = tested on: HOP-92
K562 = tested on: K562
SK-MEL-2 = tested on: SK-MEL-2
MCF7 = tested on: MCF7
KM12 = tested on: KM12
RXF 393 = tested on: RXF 393
OVCAR-3 = tested on: OVCAR-3
IGROV-1 = tested on: IGROV-1
OVCAR-4 = tested on: OVCAR-4
A498 = tested on: A498
MDA-N = tested on: MDA-N
786-0 = tested on: 786-0
T47D = tested on: T47D
Hs-578T = tested on: Hs-578T

Measured: GI50

COc1ccc(/C=C/c2ccnc3ccccc23)cc1
inactive: PC-3 18.2 µM | MOLT-4 12.2 µM | HL-60 6.78 µM | NCI-H23 12.7 µM | SF-295 16.9 µM | SNB-19 19.3 µM | HOP-92 4.66 µM | K562 6.34 µM | SK-MEL-2 20.3 µM | MCF7 15.6 µM | KM12 16.5 µM | RXF 393 19.3 µM | OVCAR-3 13.4 µM | IGROV-1 17.3 µM | OVCAR-4 3.03 µM | A498 14.1 µM | MDA-N 16.6 µM | 786-0 16.8 µM | T47D 4.9 µM | Hs-578T 22.6 µM

CS(=O)(=O)OCCCCOS(C)(=O)=O [BUSULFAN]
inactive: PC-3 235 µM | MOLT-4 124 µM | HL-60 125 µM | NCI-H23 230 µM | SF-295 210 µM | SNB-19 222 µM | HOP-92 198 µM | K562 201 µM | SK-MEL-2 248 µM | MCF7 213 µM | KM12 > 250 µM | RXF 393 182 µM | OVCAR-3 > 250 µM | IGROV-1 > 212 µM | OVCAR-4 214 µM | A498 233 µM | MDA-N 209 µM | 786-0 228 µM | T47D > 250 µM | Hs-578T > 250 µM

CC(C)(C)OC(=O)NC1CCCCC1NC(=O)C(=O)NC1CCCCC1NC(=O)OC(C)(C)C (configuration not stated)
inactive: PC-3 > 100 µM | MOLT-4 > 100 µM | HL-60 > 100 µM | NCI-H23 > 100 µM | SF-295 29.1 µM | SNB-19 28.4 µM | HOP-92 13.5 µM | K562 > 100 µM | SK-MEL-2 59 µM | MCF7 > 100 µM | KM12 > 100 µM | RXF 393 9.46 µM | OVCAR-3 > 100 µM | IGROV-1 > 100 µM | OVCAR-4 > 100 µM | A498 32.7 µM | MDA-N > 100 µM | 786-0 34.7 µM | T47D > 100 µM | Hs-578T 16.9 µM

COc1ccccc1/[N+]([O-])=C/c1ccccc1OC(=S)S
inactive: PC-3 34 µM | MOLT-4 27.5 µM | HL-60 25.8 µM | NCI-H23 28.2 µM | SF-295 32.2 µM | SNB-19 99.3 µM | HOP-92 19 µM | K562 29.5 µM | SK-MEL-2 21.5 µM | MCF7 23.7 µM | KM12 47.6 µM | RXF 393 33.7 µM | OVCAR-3 26.2 µM | IGROV-1 19.6 µM | OVCAR-4 28.3 µM | A498 32.4 µM | MDA-N 17.7 µM | 786-0 26.5 µM | T47D 17.6 µM | Hs-578T 73.6 µM

O=C1Nc2ccccc2/C1=N/Nc1nc(-c2cccc([N+](=O)[O-])c2)cs1
inactive: PC-3 28.2 µM | MOLT-4 31.5 µM | HL-60 25.1 µM | NCI-H23 36.4 µM | SF-295 20.7 µM | SNB-19 26.7 µM | HOP-92 20.1 µM | SK-MEL-2 31.5 µM | MCF7 23.9 µM | KM12 26.3 µM | RXF 393 29.5 µM | OVCAR-3 34.8 µM | IGROV-1 21.6 µM | OVCAR-4 21 µM | A498 21.8 µM | MDA-N 31.1 µM | 786-0 16.3 µM | T47D 27.3 µM | Hs-578T 20.1 µM

O=C(CSc1nc2ccccc2c(=O)n1-c1ccccc1)N/N=C1\C(=O)Nc2ccc(F)cc21
inactive: PC-3 1.85 µM | MOLT-4 1.61 µM | HL-60 1.82 µM | NCI-H23 3.01 µM | SF-295 1.87 µM | SNB-19 4.08 µM | HOP-92 1.84 µM | K562 1.61 µM | SK-MEL-2 1.88 µM | MCF7 2.18 µM | KM12 3.71 µM | RXF 393 1.95 µM | OVCAR-3 1.91 µM | OVCAR-4 1.82 µM | A498 1.85 µM | MDA-N 3.47 µM | 786-0 2.34 µM | T47D 1.87 µM | Hs-578T 4.18 µM

CCOC(=O)CCc1c(C)c2ccc(O)cc2oc1=O
inactive: PC-3 > 100 µM | MOLT-4 > 100 µM | HL-60 > 100 µM | NCI-H23 > 100 µM | SF-295 > 100 µM | SNB-19 > 100 µM | HOP-92 > 100 µM | K562 > 100 µM | SK-MEL-2 > 100 µM | MCF7 > 100 µM | RXF 393 > 100 µM | OVCAR-3 > 100 µM | IGROV-1 > 100 µM | OVCAR-4 > 100 µM | A498 > 100 µM | MDA-N > 100 µM | 786-0 > 100 µM | T47D > 100 µM | Hs-578T > 100 µM
